Data on four compounds can be found in patent publication US20220324868A1, “Pyrazolone-Fused Pyrimidine Compound, and Preparation Method and Use Therefor” (SHANGHAI PHARMACEUTICALS HOLDING CO., LTD., priority 2019, published 2022).

Molecules are shown by their SMILES. pIC50: −log10 of the molar value. Read-outs that look alike come from different tables or passages of the source.

The target in one assay is T1, WEE1 kinase (Homo sapiens, UniProt P30291).
T1 construct: purchased CarnaBiosciences, Inc. 05-177
Description: Inhibitory effect on WEE1 kinase in vitro (ELISA). The following applies: ATP concentration of Km (12 μM), WEE1 0.15 ng/μL, 60 min; for pIC50: read-out: WEE1 IC50. Type of assay: biochemical. As to the method: I. Inhibitory Effect of Compound on WEE1 Kinase In Vitro
The tested compounds were screened on WEE1 kinase with ATP concentration of Km by ELISA. Three compounds were screened on WEE1 kinase to evaluate the kinase inhibitory activity of the tested compounds. In the detection process, the initial concentration of the tested compounds was all selected as 100 nM, and each compound was selected with 6 gradient dilution concentrations, the gradient dilution ratio was 4-fold, and two replicate wells were detected for each concentration, MK1775 was used as the standard control.
1. Coating substrate: 1) An appropriate volume of substrate storage solution protein tyrosinase (PTK) substrate (poly-Glu-Tyr) was taken, diluted 10 times with PBS, and the concentration was diluted from […]. The mixture was added to a high adsorption 96-well plate at 125 μL per well. The plate was placed in an incubator at 37° C. for overnight coating. 2) After 24 hours, the 96-well plate was taken out, the liquid in the 96-well plate was poured out, cleaned with washing buffer for 3 times, and the incubator at 37 was inverted and dried for 2 hours.
3. Enzyme reaction stage: 1) WEE1 kinase and ATP were prepared into 2× enzyme solution and 4× ATP solution respectively with 1× reaction buffer.
4. Reaction termination stage: 1) the reaction mixture in the plate was poured out, 200 μL of washing buffer was added to each well, and washed for 5 times; the primary antibody P-Tyr (PY99) (dilution ratio 1:2000) was added, 100 μL per well, at room temperature for 30 min. 2) The primary antibody in the plate was poured out, 200 μL of washing buffer was added to each well, and washed for 5 times; the second antibody Anti-mouse IgG HRP-linked Antibody (dilution ratio 1:2000) was added, 100 μL per well, at room temperature for 30 min. 3) The secondary antibody in the plate was poured out, washed 5 times with washing buffer, and TMB was added, 100 μL per well, and colored for 10-30 min, depending on the color depth. The reaction was terminated with 1N sulfuric acid before reading.
5. […] 2) Graphpad Prism 5.0 was used to fit Log(inhibitor) vs. response-Variable slope (four parameters) curves to the data, and the corresponding IC50 (half maximal inhibitory concentration) was calculated.

The subject of the next assay is COLO 205 cells. Description: Proliferation inhibition of COLO 205 cells (Luminescence ATP Detection, ATPlite). It counts as cell-based. The following applies: Homo sapiens; p53-deficient cell line COLO 205, 72 hours. As to the method:
(§1) I. Proliferation Inhibitory of the Compound on COLO 205 Cells and Hela Cells.
(§2) COLO205 cells, purchased from SIBS, generation P11; Hela purchased from ATCC, generation P13.
Drug treatment of cells: on the third day of the experiment, microplates were removed from the incubator, 9× compound were added to each well in the microplate, and 5 μL was added to each well, wherein there were 2 replicate wells for each drug concentration and 10 drug concentrations for each compound. According to different cell lines, the initial concentration of each compound was different, after the completion, the microplate was cultured at 37° C. and 5% CO2 for 72 hours.
Data collection: The microplates were removed from the incubator and equilibrated at room temperature for 30 minutes. 100 μL of ATPlite reaction mixture after room temperature equilibrium was added to each well, the solution was shaken at room temperature of 1300 rpm for 2 minutes, and then the microplate was placed in a HERAEUS Multifuge X1R centrifuge at 2000 rpm for 1 minute; after equilibrium at room temperature for 10 minutes, the fluorescence signal value was measured on EnVision™.
(§3) Calculation of cell viability: Cell viability(%)=signal value of administration/signal value of controlx 100%. Graphpad Prism 5.0 was used to fit Log(inhibitor) vs. response-Variable slope (four parameters) curves to the fluorescence signal values at each concentration, and the corresponding IC50 (half maximal inhibitory concentration) was calculated.

The subject of another assay is Hela cells. Nature of the assay: Proliferation inhibition of Hela cells (Luminescence ATP Detection, ATPlite). It counts as cell-based. The following applies: Homo sapiens, 72 hours. As to the method:
as §1, §2
Cell culture and inoculation: on the first day of the experiment, cells in normal culture were taken in their exponential growth state, digested and dispersed, the cell density was adjusted to 9×10^3 cells/mL, and 40 μL per well were inoculated into 384-well cell culture plates; after inoculation was completed, the microplates were placed at 37° C. and 5% CO2 for incubation.
Drug treatment of cells: on the second day of the experiment, microplates were removed from the incubator, 9× compound were added to each well in the microplate, and 5 μL was added to each well, wherein there were 2 replicate wells for each drug concentration and 10 drug concentrations for each compound. According to different cell lines, the initial concentration of each compound was different, after the completion, the microplate was cultured at 37° C. and 5% CO2 for 72 hours.
Data collection: the microplates were removed from the incubator and equilibrated at room temperature for 30 minutes. 40 μL of ATPlite reaction mixture after room temperature equilibrium was added to each well, the solution was shaken at room temperature of 1300 rpm for 2 minutes, and then the microplate was placed in a HERAEUS Multifuge X1R centrifuge at 2000 rpm for 1 minute; after equilibrium at room temperature for 10 minutes, the fluorescence signal value was measured on EnVision™.
as §3

T1 sequence (P30291 whole entry): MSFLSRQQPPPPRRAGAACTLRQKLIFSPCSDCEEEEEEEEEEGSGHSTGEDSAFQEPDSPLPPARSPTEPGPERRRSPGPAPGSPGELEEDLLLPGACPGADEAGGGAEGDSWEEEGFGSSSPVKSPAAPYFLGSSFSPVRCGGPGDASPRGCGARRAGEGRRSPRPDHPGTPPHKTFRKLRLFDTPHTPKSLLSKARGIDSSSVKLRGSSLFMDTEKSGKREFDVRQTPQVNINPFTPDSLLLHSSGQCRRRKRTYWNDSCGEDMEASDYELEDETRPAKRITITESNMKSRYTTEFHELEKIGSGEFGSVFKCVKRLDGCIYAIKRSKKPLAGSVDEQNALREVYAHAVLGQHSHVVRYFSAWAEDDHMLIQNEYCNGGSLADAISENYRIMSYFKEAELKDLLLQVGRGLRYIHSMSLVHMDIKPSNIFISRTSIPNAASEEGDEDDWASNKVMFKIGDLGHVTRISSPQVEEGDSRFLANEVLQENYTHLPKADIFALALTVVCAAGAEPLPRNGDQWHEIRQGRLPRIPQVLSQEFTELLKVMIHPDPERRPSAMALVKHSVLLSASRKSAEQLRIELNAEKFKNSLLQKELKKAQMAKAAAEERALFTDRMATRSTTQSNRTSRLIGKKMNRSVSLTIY

In turn, `C=CCn1c(=O)c2cnc(Nc3ccc(N4CCN(C)CC4)cc3)nc2n1-c1ccc2c(n1)C(C)(O)CC2` (stereo not drawn) [Compound I-16, 2-allyl-1-(7-hydroxy-7-methyl-6,7-dihydro-5H-cyclopenta[b]pyridin-2-yl)-6-((4-(4-methylpiperazin-1-yl)phenyl)amino)-1,2-dihydro-3H-pyrazolo[3,4-d]pyrimidin-3-one] returned an IC50 against WEE1 kinase (WEE1 IC50, nM) of 3.99 nM. Besides, the pIC50 is 5.79 with COLO 205 cells and 6.50 in the assay with Hela cells.
For the compound `C=CCn1c(=O)c2cnc(Nc3ccc(N4C[C@@H]5CN(C(C)C6CC6)C[C@@H]5C4)cc3)nc2n1-c1ccc2c(n1)C(O)CC2` (stereo partly drawn) [Compound I-41], the pIC50 at WEE1 kinase is 7.97; in the assay with COLO 205 cells, 6.10; in the assay with Hela cells it was 6.65.
As for `C=CCn1c(=O)c2cnc(Nc3ccc(N4CC5CN(C)CC5C4)cc3)nc2n1-c1ccc2c(n1)C(C)(O)CC2` (stereo not drawn) [Compound I-35, 2-allyl-1-(7-hydroxy-7-methyl-6,7-dihydro-5H-cyclopenta[b]pyridin-2-yl)-6-((4-(-5-methylhexahydropyrrolo[3,4-c]pyrrol-2(1H)-yl)phenyl)amino)-1,2-dihydro-3H-pyrazolo[3,4-d]pyrimidin-3-one], the results for the pIC50 on WEE1 kinase, with COLO 205 cells and in the assay on Hela cells were 8.50, 6.33 and 6.83, respectively.
As for `C=CCn1c(=O)c2cnc(Nc3ccc(N4CCN(C)CC4)cc3)nc2n1-c1ccc2c(n1)C(O)CCC2` (stereo not drawn) [Compound I-23], the pIC50 is 8.54 on WEE1 kinase, 5.78 with COLO 205 cells and 6.27 in the assay with Hela cells.
